Reference: patent US10583109B2, “Use of silver(I) complexes as anticancer agents” (University of Johannesburg, priority 2012, dated 2020)

Tests used:
Type in all cases: cell-based
[1] = tested on: SNO-oesophageal cancer cells; assay: Flow cytometric analysis (Annexin-V FITC / PI) of apoptosis and/or necrosis in SNO-oesophageal cancer cells; conditions: 10 μM, 24 hours of treatment
Method: To determine if either apoptosis or necrosis occurred, the cells were double labelled with Annexin-V FITC and Propidium Iodide (PI) by means of an Annexin-V FITC assay kit (Serotec, UK). This was done according to manufacturer's instructions with a few adjustments. Briefly, the cells (±3×10^5 cells/ml) were washed twice with cold phosphate buffered saline (PBS), followed by the addition of 100 μl 1× binding buffer. Two and a half microliters of Annexin-V along with 5 μl PI were added in the dark and was incubated for 15 minutes at room temperature. After incubation, 400 μl 1× binding buffer was added and cells were analysed using the FACSAria flow cytometer (BD Biosciences, San Jose, Calif.) with FACSDiva software (BD Biosciences, San Jose, Calif.) 492 nm (excitation) and 520 nm for Annexin and 488 nm and 575 nm(emission) for PI.
The cell membrane contains a negatively charged phosphatidylserine (PS) on the inner leaflet and is exposed when apoptosis or necrosis takes place. Annexin-V interacts with PS in both apoptotic and necrotic cells, making these cellular deaths undistinguishable. This is overcome by using PI as an alternative label that interacts with the exposed DNA of necrotic cells only, leading to the fluorescent detection of both these labels. Pie charts (FIG. 9) were constructed for all the controls (including Ligand-1 to Ligand-5) and the different silver(I) thiocyanate phosphine complexes (1)-(5).
Pie charts representing the four different flow cytometric quadrants of Annexin-V and […] to determine the mode of cellular death induced in differentially treated SNO-oesophageal cells are represented in FIG. 9. An untreated control (A), apoptotic control (B) and necrotic control (C) were included. Cells were treated with 10 μM of the different ligands including the silver(I) thiocyanate phosphine complexes (1)-(5). An average percentage was calculated for all segments where the SEM is n=3 for all treatments except for 15% H2O2 (n=2). The four segments represent the following: White segment—negative for FITC and PI, Light grey segment—positive for FITC but negative for PI, Dark grey segment—positive for PI but negative for FITC and Black segment—positive for both FITC and PI. Cells undergoing early apoptosis are represented by the light grey segment, while those of late apoptosis and primary necrosis are represented by the black segment. Necrotic cells are represented by the dark grey segment and intact viable cells are shown by the white segment.
Approximately 3×10^5 cells were washed with ice cold phosphate buffered saline solution (PBS). The cells were double labeled using an Annexin-V FITC assay kit adjusting the protocol. A 1× binding buffer (100 μl) was used to fix the cells. Annexin-V (2.5 μl) and Propidium Iodide (PI—5 μl) labels were added respectively followed by a 15 minute incubation, at room temperature, in the dark. After the incubation period, 400 μl of the 1× binding buffer was added, where counting of the cellular events was made using an FACSAria flow cytometer (BD Biosciences, San Jose, Calif.) with FACSDiva software (BD Biosciences, San Jose, Calif.). This technique in particular identifies whether predicted apoptotic cell death (or necrosis) was induced by these complexes.
As observed in FIG. 14, dot blots represent the mode of cellular death induced in the SNO-oesophageal cancer cells after 24 hours of treatment. FIG. 14(a): 0.1% DMSO, FIG. 14(b): 100 μM CDDP, FIG. 14(c): 25% H2O2, FIG. 14(d-i): complexes (6)-(9). An average percentage was calculated for all quadrants where the SEM is n=2 for all treatments. The four quadrants represent the following: Quadrant Q3 is negative for FITC and PI, Quadrant Q4 is positive for FITC but negative for PI, Quadrant Q1 is positive for PI but negative for FITC and Quadrant Q2 is positive for both FITC and PI. Cells undergoing early apoptosis are more likely to be found in Quadrant Q4 while those of late apoptosis and primary necrosis will be found in Quadrant Q2. […]

[2] = tested on: SNO-oesophageal cancer cells; conditions: for cells' viability: 10 µM
Method: The SNO-oesophageal cancer cells were cultured in Dulbecco's modified Eagles medium (DMEM) containing 10% Foetal bovine serum (FBS), 0.8% Penicillin/Streptomycin/Fungizone and 0.2% Gentamycin. The SNO-oesophageal cancer cells were subcultured every 48 hours and incubated at 37° C. under a 5% CO2 humidified atmosphere. After 48 hours the cells were trypsinized and plated (6×10^5 cells) in 3.5 cm culture dishes and left to cultivate for 24 hours.
MCF-7 breast cancer cells, in terms of a first study, and SNO-oesophageal cancer cells, in terms of a second study, were treated with 10 μM silverthiocyanide complexes (1)-(5), as well as their ligands (Ligand-1 to Ligand-5) over a 24 hour incubation period. These complexes were dissolved in 0.1% Dimethyl sulfoxide (DMSO). The DMSO alone (vehicle control) decreased the viability with approximately 2.2%, signifying its minimal influence in cancer cell growth. For comparative purposes, 100 μM Cisplatin (CDDP) and 25% H2O2 was included which respectively serves as the apoptotic and necrotic controls. Cisplatin was prepared in 0.9% NaCl, whereas H2O2 was prepared in the supplemented DMEM media right before treatment. An untreated negative control (UT) was exposed to similar conditions as the treated cells and monitored during the experimental study.
An AlamarBlue® Viability® (Serotec, UK) assay was performed after a 24 hour treatment with complexes (1)-(5) and their ligands (Ligand-1 to Ligand-5, respectively) to evaluate the cellular effect the instant complexes (and their ligands) may have on the cancer cells. AlamarBlue® dye (10%) was incubated with trypsinized cells over a 2 hour period before the fluorescence was measured with a Synergy HT Multi-Detection Microplate reader (BioTek, Winooski, Vt.) at wavelengths of 530 nm and (excitation) and 590 nm (emission). This fluorescent based assay in particular involves the metabolic oxidation-reduction reaction of resazurin to a reduced resorufin product that is directly proportional to the amount of viable cells.
The percentage cellular viability of differentially treated SNO-oesophageal cells was determined using an AlamarBlue® assay, as depicted in FIG. 7. Different controls (grey) were included: untreated, 0.1% DMSO solvent and apoptotic control (100 μM Cisplatin) as well as the corresponding ligands (10 μM) of complexes (1)-(5). Cells were treated with silver(I) thiocyanate phosphine complexes (1)-(5) at a concentration of 10 μM. The percentages were calculated with respect to the control and error bars were constructed on the basis of Standard Error of the Mean (SEM) where n=9 except for the ligand of compound 4 (n=8). The P-values (*P<0.001 and **P<0.0001) were determined with the Student's T-test to evaluate the significant difference.
The cells were thereafter treated with complexes (6)-(9) at a concentration of 10 μM prepared in 0.1% DMSO. Treatment with either 25% H2O2 or 100 μM CDDP served as controls for necrosis and apoptosis respectively. The CDDP was prepared in 0.9% NaCl while the H2O2 was diluted with supplemented DMEM prior to treatment.
A suspension (100 μl) of the differentially treated cells was added in triplicate to a microtiter plate. In the dark, AlamarBlue® dye (10 μl) was added to each well containing a sample, followed by a 2 hour incubation in a 5% CO2 incubator at 37° C. The fluorescence was read on a Synergy HT Multi-Detection Microplate reader at a wavelength of 530 nm and (excitation) and 590 nm (emission). In terms of this study, the apoptotic control CDDP (100 μM) was included. Error bars represent the standard error of the mean (SEM) where n=9. The Student's T-test was used to determine the significant difference of the treatments with respect to DMSO (P*<0.05 and P**<0.001). The silver(I) nitrate phosphine complexes under evaluation decreased the cancer cell viability to a large extent compared to DMSO except complex (9).
SNO-oesophageal cancer cells were a gift from the University of Pretoria, RSA. […]

[3] = tested on: SNO-oesophageal cancer cells; assay: Morphological features of SNO-oesophageal cancer cells by inverse light microscopy; conditions: 10 μM, 24 hours of treatment
Method: Morphological studies were done by means of an Axiovert 25 inverted microscope (Carl Zeiss, Göttingen, Germany) with Axio Vision 3.1 software (Carl Zeiss, Göttingen, Germany) using an magnification of 100×.
After 24 hours of treatment with complexes (1)-(5) including their ligands the cells were examined under said Axiovert 25 inverted light microscope. This was done to determine how the complexes of the present invention influence morphology which was compared to 100 μM Cisplatin (apoptotic control) and 15% H2O2 (necrotic control).
Light microscope images indicating the morphology of the differentially treated SNO-oesophageal cancer cells is shown in FIG. 8. An untreated control (a) including 100 μM Cisplatin (b), an apoptotic control and 15% H2O2 (c), and a necrotic control was included. Cells were treated with 10 μM silver(I) thiocyanate phosphine complexes (1)-(5) as well as their separate ligands (Ligand-1 to Ligand-5, respectively) (FIGS. 8d to 8m). Black arrows represent signs of apoptosis, while the white arrows represent signs of necrosis.
An Axiovert 25 inverted microscope was used to examine if these complexes affect the morphological features of the malignant cells in any other way. This was done at a magnification of 100× with the use of Axio Version 3.1 software (Carl Zeiss, Gottingen, Germany).
Morphological studies where done after 24 hours of treatment to determine how these compounds influence/change specific features of the malignant SNO-oesophageal cancer cells, compared to the untreated (UC) and 1% DMSO vehicle control. The treated cancer cells including their controls were examined under an Axiovert 25 inverted light microscope (Carl Zeiss, Göttingen, Germany) with Axio Vision 3.1 software (Carl Zeiss, Göttingen, Germany) using a 100× magnification. In FIG. 19, the morphology of the different controls including Ligand-10 and complexes (10)-(12) are represented. To predict the targeting mechanisms of these compounds, the treated cells were compared to 100 μM Cisplatin (apoptotic control) and 25% H2O2 (necrotic control).

Row | Compound | apoptotic cell death (flow cytometry, Q4 and Q2) [1] [%] | signs of apoptosis (morphology) [3] | other results
1 | O=[N+]([O-])[O-].[Ag+].c1ccc(P(c2ccccc2)c2ccccc2)cc1 [complex (6), AgNO3(PPh3)] | 20 |  | 
2 | [AgSCN{P(4-MeOC6H4)3}2]n [complex (5)] |  |  | percentage cellular viability / toxicity ([2]; 10 μM, 24 hour treatment, compared to the control): highly toxic; necrotic cell death (morphology) [3]: Necrotic cell death was also observed
3 | O=[N+]([O-])[O][Ag]([P+](c1ccccc1)(c1ccccc1)c1ccccc1)([P+](c1ccccc1)(c1ccccc1)c1ccccc1)[P+](c1ccccc1)(c1ccccc1)c1ccccc1 [complex (8), AgNO3(PPh3)3] | 24 |  | 
4 | Fc1ccc(P(c2ccc(F)cc2)c2ccc(F)cc2)cc1 [Ligand-3, P(4-FC6H4)3, reference compound] |  | no | 
5 | Clc1ccc(P(c2ccc(Cl)cc2)c2ccc(Cl)cc2)cc1 [Ligand-4, tris parachlorophenyl phosphine, reference compound] |  | minimal | 
6 | COc1ccc(P(c2ccc(OC)cc2)c2ccc(OC)cc2)cc1 [Ligand-5, P(p-MeOC6H4)3, reference compound] |  | minimal | cells' viability [2]: 80.7%
7 | Cc1ccc(P(c2ccc(C)cc2)c2ccc(C)cc2)cc1 [Ligand-2, P(p-MeC6H4)3, reference compound] |  | minimal | cells' viability [2]: 86.4%
8 | O=[N+]1[O][Ag]([P+](c2ccccc2)(c2ccccc2)c2ccccc2)([P+](c2ccccc2)(c2ccccc2)c2ccccc2)[O]1 [complex (7), AgNO3(PPh3)2] | 30.6 |  | 
9 | c1ccc(P(c2ccccc2)c2ccccc2)cc1 [Ligand-1, triphenyl phosphine, reference compound] |  | minimal | 
